Laboratory results published in patent US9623083B2, “Method to screen for an activator of adipose-resident NK cells” (Cornell University, priority 2011, dated 2017).

Columns and labels:
[1] = tested on: adipose-resident NKT cells; assay: In vivo effectiveness as activator of adipose-resident NKT cells
[2] = tested on: NKT cells in adipose tissue; assay: Flow cytometric analysis of immune cells in adipose tissue after αGalCer challenge; assay type: in vivo, mice
Method: Single-cell suspensions of stromal vascular cells (SVC) from adipose tissue were prepared as described (Xia et al. (2011)). SVCs from two fat pads per mouse were diluted in 120-200 μl PBS, from which one tenth was used for the subsequent staining Following incubation with anti-CD16/CD32 antibody to block Fc receptors, 1×10^6 cells were incubated with 20 μl of antibodies diluted at optimal concentrations for 20 min at 4° C. Cells were washed three times with PBS and then resuspended in 200 μl PBS for analysis using the FACSCalibur Flow Cytometer (BD Biosciences). NKT cells were defined as CD45^+αGalCer-loaded CD1d-tetramer^+CD3/TCRβ^+ lymphocytes; CD8^+ T cells were defined as CD8^+CD45^+ cells; macrophages were as CD45^+F4/80^+CD11b^+ cells. During the run, samples were completely run out and the total number of CD45^+ lymphocytes or immune cells were gated and counted. The total cell number for various immune cells per g adipose tissue was calculated as (% cells in total CD45^+ lymphocytes or immune cells×total CD45^+ lymphocytes or immune cells)/g adipose tissue.
For the Brdu staining, mice were injected (i.p.) with αGalCer (100 ng per g body weight) at day 0, and then with BrdU (Sigma, 0.6 mg/10 g body weight) at 36 h and 12 h prior to sacrifice at day 3. SVC of adipose tissues were purified, labeled with cell surface antibodies and then fixed in cold 70% ethanol at −20° C. overnight. The rest of steps were performed as the regular flow cytometric analysis using BrdU-FITC antibody and DNA dye 7-AAD (Anaspec).
(§1) Accordingly, 6 w-old male mice were fed with either 13% LFD or 60% HFD for indicated period of time from 4 d to 24 w as described in Example 1. αGalCer (Toronto Research Chemicals) was dissolved in pyridine at 2.5 mg/ml and then diluted 1:250 in PBS to prepare 10 μg/ml working solution prior to use. In all experiments, mice were injected i.p. with 200 μl αGalCer (100 ng αGalCer per g body weight). The vehicle control group was injected with PBS with 0.4% pyridine. The dosage and frequency of αGalCer injection were the same for all the gain-of-function experiments unless otherwise indicated. HFD mice were injected with αGalCer or vehicle at day 0 and day 2. GTT was conducted on day 4, followed by sacrificing the mice on (day 5) to harvest adipose tissues (or other tissues as indicated), which were processed for immune cell analysis, frozen for Q-PCR or Western blot, or fixed for H&E staining Flow cytometric analyses of NKT levels and other immune cells were performed on day 5.

[3] = literature (Berzins 2011; Giaccone 2002); cited from earlier work
[4] = Fasting insulin levels (ELISA); assay type: in vivo; details: 8 w HFD mice, FIG. 6D
Method: Blood was collected in animals upon 6 h fasting during the day. Circulating insulin levels were measured using the kit from Millipore per supplier's protocols.
(§2) For GTT, mice were fasted for 16-18 h followed by injection of glucose (Sigma) at 1 g/kg body weight. Blood glucose was monitored using One-Touch Ultra Glucometer. Fasting insulin levels were measured following a 6 h fast.

[5] = tested on: M2 genes in adipose tissue; assay: Q-PCR analysis of M1 and M2 genes in white adipose tissue; assay type: in vivo, mice
Method: RNA extraction from cells and murine tissues, and Q-PCR were carried out as previously described (36) using Trizol (Invitrogen) for liver, and Trizol plus QIAeasy kit (Qiagen) for adipose tissues with DNase digestion (Roche). Q-PCR data collected on the Roche LightCycler 480 were normalized to ribosomal 132 gene in the corresponding sample.
as §1

[6] = tested on: cells surrounding adipocytes; assay: H&E histology of adipose tissue; assay type: in vivo, mice; details: WT, 4 d HFD, FIG. 3D; abolished by CD1d deficiency
Method: Adipose tissues were fixed in 4% formaldehyde, embedded in paraffin and sectioned by the Cornell Histology Core Facility. Pictures were taken using the Axiovert 200M microscope (Zeiss).
as §1

gene expression in WAT = assay: Microarray analysis of WAT; assay type: in vivo, mice; details: 4 d HFD
Method: Microarray analyses of WAT were performed as described (39) with four groups of mice (n=3-4 per cohort) as follows: WT+veh, WT+αGalCer, CD1d^−/−+veh and CD1d^−/−+αGalCer. All mice were on 4 d HFD feeding with two αGalCer injections at day 0 and day 2. […] Data have been deposited into the GEO datasets (GSE36032). The array data of IL-4-treated mouse BMDM for 10 days were obtained from the Gene Expression Omnibus (GEO) database with accession number GSE25088 (Szanto A. et al. (2010)).

[7] = Body and epididymal fat weights; assay type: in vivo; details: HFD mice, FIG. 4B
Method: as §1

Arg1 protein, p-Y STAT6 = assay: Western blot of Arg1 and p-Y STAT6 in WAT and liver; assay type: in vivo, mice
Method: Tissues or cells were lysed in Tris-based lysis buffer containing 1% Triton X-100. Normally, 15-30 μg of total lysates unless otherwise indicated were used in a mini SDS-PAGE as described (Sha et al. (2009) Cell Metab 9, 556-564). Antibodies specific for (p-Tyr641) STATE and (p-Tyr705) STAT3 (Cell signaling) and Arginase 1 (N-20, Santa Cruz sc-18351) were used at 1:500-2000 and for the loading control HSP90 (Santa Cruz) was used at 1:6000. The secondary antibody goat anti-rabbit IgG HRP (1:10,000) was from Bio-Rad. Quantitation of band density was carried out using the ImageLab software of the Bio-Rad ChemiDoc XRS+system following exposure.
as §1

[8] = Glucose tolerance test (GTT) after αGalCer injection; assay type: in vivo, mice
Method: as §1, §2

[9] = one injection of αGalCer, Ohmura et al. (2010); cited from earlier work

## CCCCCCCCCCCCCCCCCCCCCCCC(=O)NC(COC1O[C@H](CO)[C@H](O)[C@H](O)[C@H]1O)C(O)C(O)CCCCCC (stereo partly shown) [OCH, tetracosanoic acid 1-galactopyranosyloxy-3,4-dihydroxydec-2-yl amide]
[1]
  effectiveness in vivo: not effective in vivo

## CCCCCCCCCCCCCCCCCCCCCCCCCC(=O)N[C@@H](CO[C@H]1O[C@H](CO)[C@H](O)[C@H](O)[C@H]1O)[C@H](O)[C@H](O)CCCCCCCCCCCCCC [αGalCer, (2S,3S,4R)-1-O-(alpha-D-galactosyl)-N-hexacosanoyl-2-amino-1,3,4-octadecanetriol]
[2]; 4 d HFD mice, FIG. 5A
  macrophages and CD8+ T cells in adipose tissue: milder increases
[2]; 4 d HFD mice, αGalCer 100 ng per g body weight i.p. day 0 and day 2, FIG. 3C
  increase in percentage of NKT cells in adipose tissue: > 4 fold
[2]; 4 d HFD mice, αGalCer i.p. day 0 and day 2, FIG. 5A
  increase in total cell number of NKT cells in adipose tissue: 70 fold
[2]; 4 d HFD, FIG. 12B
  reduction of total lymphocytes in WAT of IL-4-/- mice relative to WT cohorts after αGalCer: approximately 40%
[3]
  tolerability in humans: well tolerated
  toxicity: not toxic
[4]
  effect on fasting insulin levels: no effect
[5]; 4 d HFD, NKT-dependent, FIG. 9F
  Il4 mRNA levels in WAT: highly induced
[5]; 4 day HFD, vs WT control littermates, FIG. 12C
  αGalCer-mediated induction of M2 genes in WAT of myeloid cell-specific PPARγ or PPARβ/δ-deficient animals: not affected
[5]; IL-4-/- mice, 4 d HFD, FIG. 11D-F
  αGalCer-mediated induction of M2 genes Arg1, Chi3l3, Pdcd1Ig2 and Arg1 protein in WAT with loss of IL-4: markedly attenuated
[5]; all three HFD models, NKT-dependent, FIGS. 7A-B and 8A
  induction of a subset of M2 genes (Arg1, Chi313, Pdcd1Ig2) in adipose tissue: 50-100 fold
[6]
  number of cells surrounding adipocytes in WAT sections: significant increase
Gene expression in WAT; WT vs CD1d-/-, NKT-dependent, FIG. 9A
  number of genes whose expression was significantly increased by more than 2-fold in WAT: 1,556 genes
Gene expression in WAT; microarray, FIG. 9B
  Arg1 expression, αGalCer vs. veh in WT WAT: 32 fold
  Chi313 expression, αGalCer vs. veh in WT WAT: 138 fold
  pdcd1Ig2 expression, αGalCer vs. veh in WT WAT: 53 fold
[7]
  effect on body and epididymal fat weights: no discernible effect
Arg1 protein, p-Y STAT6; CD1d-/- mice, FIG. 7C-D
  Arg1 protein in CD1d-/- WAT: abolished
Arg1 protein, p-Y STAT6; IL-4-/- mice, 4 d HFD, FIG. 11E-F
  tyrosine phosphorylation (p-Y) of STAT6 in WAT following αGalCer with loss of IL-4: completely abolished
Arg1 protein, p-Y STAT6; WT mice, HFD, FIG. 7C-D
  Arg1 protein in WT WAT: significantly induced
Arg1 protein, p-Y STAT6; liver of WT mice, 4 d HFD, FIG. 11G
  hepatic STAT6 activation: not activated
Arg1 protein, p-Y STAT6; liver, 4 d or 8 w HFD, FIG. 8B
  Arg1 protein induction in the liver: not observed in the liver
[8]; CD1d-/- mice, 4 d HFD, FIG. 6E
  effect on glucose tolerance in CD1d-/- mice: no effect
[8]; IL-4-/- mice, 4 d HFD, FIG. 11B-C
  αGalCer effect in glucose tolerance in IL-4-/- mice: completely abolished
[8]; WT mice at all stages of HFD (4 d, 8 w, 24 w), FIGS. 6A-C
  systemic glucose tolerance: improved systemic glucose tolerance
[8]; WT mice on LFD, FIG. 6F
  effect on glucose tolerance in mice on LFD: no effect on glucose tolerance
[9]
  effect on glucose tolerance in HFD animals: mild effect
